Measured values taken from US20240426838A1, “CRISPR/CAS-Associated Detection Assays, Methods and Kits” (BioPoint Pty Limited, priority 2021, published 2024).

Assays:
Assay type in all cases: biochemical
[1] = tested on: Cas12a; experiment: Evaluation of trans-cleavage activity of Cas12a with chemical enhancers (fluorescence readout); details: for fluorescence intensity, fold of that in the control: optimised concentrations, Texas Red ssDNA target, incubation time 2 h; for performance with ssRNA target: ssRNA target (FAM), 37° C. incubation; for optimum concentration leading to the highest trans-cleavage rate: sulfhydryl reductant
Experimental: For all trans-cleavage activity evaluation experiments, the CRISPR/Cas12a reaction mixture was prepared as follows: 1 μL 100 μM ([…]) of Cas12a protein was gently mixed with 5 μL 20 μM ([…]) gRNA in 3.6 mL 1×NEB 2.1 buffer. […] Different chemical enhancers (sulfhydryl reductant and surfactant) were first dissolved in MilliQ water to produce high concentration storage solutions, then a certain amount of storage solution was added into the standard CRISPR/Cas12a reaction mixture to realize the final reaction mixture with defined concentration of enhancers.
5 μL 1 μM single strand trigger DNA was applied in 100 μL prepared CRISPR/Cas12a reaction mixture for starting the CRISPR reaction process. SpectraMax i3x multi-Mode Microplate Reader (Molecular devices) was applied for the detection of fluorescence readout.

[2] = tested on: Cas12a; experiment: Electrophoretic mobility shift assay of chemical enhancers on CRISPR/Cas12a; details: optimal concentrations (10 mM DTT, 500 μM TCEP, 1% PVA, 0.04% Brij23)
Experimental: This is because fluorescence process may be independently affected by chemical enhancers used here. Briefly, the standard CRISPR/Cas12a reaction mixture was prepared as per point 1 above, then chemical enhancers were added at concentrations determined to be optimal (10 mM DTT, 500 μM TCEP, 1% PVA, 0.04% Brij23), and the same volume of 1×PBS was also used as the control. […] Alternatively, 50 μL of CRISPR/Cas12a and the chemical enhancer mixture was firstly mixed with 1 μL different concentrations of target ssDNA (5 μM, 10 μM, 15 μM, 20 μM), and then either 1 μL 1 μM triggering ssDNA was added or 1 μL PBS as control. The reaction mixtures were incubated at 26° C. for 60 mins, and then deactivated at 65° C. for 15 mins. Afterwards, 10 μL of each deactivated reaction mixture was mixed with 2 μL 6× loading dye and loaded onto 3% Agarose gel with 1× GelRed nucleic acid dye for voltage-constant electrophoresis at 60V for 100 mins.

[3] = molecular target: T1, Cas13a (Leptotrichia wadei, UniProt U2PSH1); experiment: Evaluation of trans-cleavage activity of chemically induced CRISPR/Cas13a system
T1 construct: Twinstrep (N); SUMO (N); His tag (only implied by HisTrap purification); host or cells: E. coli
Experimental: For all trans-cleavage evaluation experiments, the CRISPR/Cas13a reaction mixture was prepared as follows: 10 μL 4 μM (40 μmol) of Cas13a protein was gently mixed with 2 μL 20 μM (40 μmol) gRNA in 1 mL reaction buffer. Then, 6 μL 20 μM (120 μmol) of pre-synthesized ssRNA target (FAM) was added and well mixed to form the standard reaction mixture.
Diverse types of chemicals were first dissolved in MilliQ water to produce high concentration storage solutions, then a certain amount of storage solution was added into the standard CRISPR/Cas13a reaction mixture to realize the certain concentration of chemical involved final reaction mixture.
2 μL 1 μM single strand trigger RNA was applied in 100 μL prepared CRISPR/Cas13a reaction mixture for starting the CRISPR reaction process. ID3 plate reader was applied for the detection of fluorescence readout from FAM modified target with the excitation wavelength of 480 nm and emission wavelength of 520 nm.

[4] = tested on: Cas12a; experiment: Optimization of chemical-based reaction buffer, RNA reporter based CRISPR/Cas12a system; details: chemicals added in NEB2.1 buffer; DTT 10 mM
Experimental: 10 μL 10 μM ([…]) Cas12a protein was gently mixed with 5 μL 20 μM ([…]) gRNA in 3.6 mL 1×NEB 2.1 buffer, which was diluted by Milli-Q water. Then, 6 μL 100 μM (0.6 nmol) ssRNA linked fluorescent reporter was added and well mixed to form the final reaction mixture. The prepared reaction mixture was kept on ice before use.
Three different chemicals were applied in the reaction buffer system, and the concentration of 1,4-dithiothreitol (DTT) was 10 mM, the concentration of Tris(2-carboxyethyl)phosphine hydrochloride (TCEP) was 0.5 mM, and the concentration of Polyvinyl alcohol (PVA) was 10 mg/mL.

[5] = tested on: Cas12a; experiment: Trans-cleavage ability of antibody-Cas12a/gRNA (BAC) conjugate with ssDNA reporters; details: for reaction time to reach desired fluorescent signal intensity, faster than control: BAC conjugate, 10 mM DTT
Experimental: Firstly, 2 uL 100 μM (30 ug) Cas12a protein and 10 uL 20 μM gRNA were mixed in 30 uL NEB2.1 buffer to form the Cas12a/gRNA mixture solution. In the meanwhile, 3 uL modifier from the streptavidin conjugation kit (Abcam, ab102921) was mixed with 23 uL 1.3 mg/mL (30 ug) Cry104 antibody gently. Then, the two types of solutions were mixed together and incubated for 3 hours at room temperature. After the incubation, 3 uL quencher from the streptavidin conjugation kit (Abcam, ab102921) was added into the solution to stop the excess conjugation reaction. Finally, 50% glycerol (volume) was added into the prepared antibody-Cas12a/gRNA solution for long time storage in −20° C. freezer.
For comparison, an antibody-Cas12a conjugate was prepared according to the same procedure, where only Cas12a protein was mixed with the Cry104 antibody and modifier (i.e. without gRNA).
The standard CRISPR/Cas12a mixture was first prepared using Cry104-Cas12a/gRNA conjugate. Briefly, 100 pmol of Cry104-Cas12a/gRNA conjugate was added into 3.6 mL 1×NEB 2.1 buffer. Then, 6 μL 100 μM (0.6 nmol) ssDNA linked fluorescent reporter and 36 μL 1 M DTT were added and well mixed to form the final reaction mixture. The prepared reaction mixture was kept on ice before use.
In order to evaluate the trans-cleavage ability of Cry104-Cas12a/gRNA conjugate, 5 μL 1 μM triggering ssDNA was added into 100 μL prepared standard CRISPR/Cas12a mixture and incubated for 120 min at room temperature or 37° C. before fluorescence signal test using ID3 plate reader (Excitation wavelength of 570 nm and emission wavelength of 615 nm).

T1 sequence (U2PSH1 whole entry): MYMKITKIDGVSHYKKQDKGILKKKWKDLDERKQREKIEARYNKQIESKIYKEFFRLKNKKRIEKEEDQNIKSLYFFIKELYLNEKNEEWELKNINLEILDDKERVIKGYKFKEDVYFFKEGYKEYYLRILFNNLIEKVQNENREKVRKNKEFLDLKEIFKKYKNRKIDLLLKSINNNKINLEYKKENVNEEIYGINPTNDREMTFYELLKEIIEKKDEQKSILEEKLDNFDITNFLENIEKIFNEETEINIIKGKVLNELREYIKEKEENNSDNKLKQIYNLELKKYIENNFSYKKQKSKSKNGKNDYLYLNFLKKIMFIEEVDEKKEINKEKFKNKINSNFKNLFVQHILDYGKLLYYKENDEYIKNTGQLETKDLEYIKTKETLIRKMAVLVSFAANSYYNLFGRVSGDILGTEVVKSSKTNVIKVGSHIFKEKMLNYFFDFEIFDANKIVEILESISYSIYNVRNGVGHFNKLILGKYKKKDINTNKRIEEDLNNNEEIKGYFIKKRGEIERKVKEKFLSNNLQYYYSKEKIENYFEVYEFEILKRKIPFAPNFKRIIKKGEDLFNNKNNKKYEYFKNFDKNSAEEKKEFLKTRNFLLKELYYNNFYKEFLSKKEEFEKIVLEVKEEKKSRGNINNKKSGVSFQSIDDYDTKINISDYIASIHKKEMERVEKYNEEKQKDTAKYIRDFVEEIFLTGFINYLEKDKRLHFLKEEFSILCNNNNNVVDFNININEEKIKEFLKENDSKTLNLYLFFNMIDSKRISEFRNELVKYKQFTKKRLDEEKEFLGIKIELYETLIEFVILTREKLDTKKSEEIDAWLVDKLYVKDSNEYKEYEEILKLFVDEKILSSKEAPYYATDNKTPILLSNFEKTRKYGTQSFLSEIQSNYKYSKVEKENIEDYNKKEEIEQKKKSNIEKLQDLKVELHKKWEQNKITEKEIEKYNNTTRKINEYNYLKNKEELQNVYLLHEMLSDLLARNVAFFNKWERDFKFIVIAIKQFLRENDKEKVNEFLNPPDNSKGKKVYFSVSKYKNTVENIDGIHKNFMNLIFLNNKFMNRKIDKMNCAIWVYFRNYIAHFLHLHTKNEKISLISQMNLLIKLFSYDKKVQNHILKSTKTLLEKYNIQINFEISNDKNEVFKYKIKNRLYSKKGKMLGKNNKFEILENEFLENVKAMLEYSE

O[C@H](CS)[C@H](O)CS (racemic) [DTT, Dithiothreitol]
fluorescence signal relative to controls without DTT ([1]; Cy5.5 ssDNA target, 120 min): around three | fluorescence intensity, fold of that in the control [1]: 1.3 fold | performance with ssRNA target [1]: Enhanced performances | optimum concentration leading to the highest trans-cleavage rate ([1]; Cas12a): 10 mM | effect in electrophoretic mobility shift assay [2]: increased cleavage of the target DNA | optimum concentration [3]: 5 mM | performance of RNA reporter based CRISPR/Cas12a biosensing system [4]: best performance | reaction time to reach desired fluorescent signal intensity, faster than control [5]: ~50% | reaction time to reach desired fluorescent signal intensity, faster than control ([5]; 37° C.): ~70% | fluorescence signal output, factor versus control reaction ([5]; DTT 10 mM and 37° C.): approximately 2 | fluorescence signal increase of BAC conjugate ([5]; DTT 10 mM, room temperature): ~1.4 times

OCCS [2-ME, 2-Mercaptoethanol]
fluorescence intensity, fold of that in the control [1]: 3.4 fold | optimum concentration leading to the highest trans-cleavage rate ([1]; Cas12a): 1 mM

Triton X-100
optimum concentration of non-ionic surfactant ([1]; Cas12a, Texas red DNA reporter): 0.01%

O=C(O)CCP(CCC(=O)O)CCC(=O)O [TCEP, Tris(2-carboxyethyl)phosphine]
fluorescence intensity, fold of that in the control [1]: 2.4 fold | performance with ssRNA target [1]: Enhanced performances | optimum concentration leading to the highest trans-cleavage rate ([1]; Cas12a): 0.5 mM
